Experiments:
[1] = tested on: MOLM-13 cells (human acute myeloid leukemia cells); assay: MOLM-13 Cellular Assay; type: cell-based; conditions: 72 hours exposure, cell viability by CellTiter-Glo
How it was run: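 MOLM-13 AML cells, seeded at 5,000/well in RPMI 1640 with 10% FBS, were treated with compounds right after seeding for 72 h at 37 °C, 5% CO2. Viability read by CellTiter-Glo luminescence.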

human DHODH = human DHODH (Homo sapiens (Human), UniProt Q02127); assay: DHODH Enzymatic Assay; type: biochemical; conditions: purified human DHODH, DCIP absorbance, end-point mode; read-out: hDHODH IC50
Chain of human DHODH (Q02127 whole entry): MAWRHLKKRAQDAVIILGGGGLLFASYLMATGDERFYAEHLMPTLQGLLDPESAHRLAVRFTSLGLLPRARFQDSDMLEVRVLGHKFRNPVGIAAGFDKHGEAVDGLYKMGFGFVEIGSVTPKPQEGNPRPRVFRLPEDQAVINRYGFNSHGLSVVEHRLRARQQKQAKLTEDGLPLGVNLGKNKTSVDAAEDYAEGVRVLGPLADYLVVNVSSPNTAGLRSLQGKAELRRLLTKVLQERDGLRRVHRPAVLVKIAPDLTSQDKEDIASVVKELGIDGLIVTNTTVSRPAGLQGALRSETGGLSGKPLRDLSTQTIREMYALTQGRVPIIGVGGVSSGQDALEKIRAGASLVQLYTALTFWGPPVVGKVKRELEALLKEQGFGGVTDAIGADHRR
How it was run: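 Purified human DHODH in […] HEPES pH 7.5, 150 mM NaCl, 0.5 mM EDTA, 0.1% Triton X-100; reaction started with substrate mix of 20 mM DHO, 5 mM CoQ6, 1 mM DCIP. End-point read as DCIP reduction (absorbance ~600 nm) after brequinar quench.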

Row | SMILES | IC50 ([1]; Homo sapiens, MOLM-13, 72 h) [nM] | IC50 (human DHODH) [nM] | IC50 [1] [nM]
1 | CCn1c(CO)nn(-c2cc3c(C(C)C)cn(-c4nc(OC)ccc4Cl)c(=O)c3cc2F)c1=O [Example 49, 2-(3-Chloro-6-methoxypyridin-2-yl)-6-(4-ethyl-3-(hydroxymethyl)-5-oxo-4,5-dihydro-1H-1,2,4-triazol-1-yl)-7-fluoro-4-isopropylisoquinolin-1(2H)-one] | 2 | 1.09 | –
2 | CCn1c(CO)nn(-c2cc3c(C(C)C)cn(-c4c(C)ccnc4OC)c(=O)c3cc2F)c1=O [Example 50, 6-(4-Ethyl-3-(hydroxymethyl)-5-oxo-4,5-dihydro-1H-1,2,4-triazol-1-yl)-7-fluoro-4-isopropyl-2-(2-methoxy-4-methylpyridin-3-yl)isoquinolin-1(2H)-one] | 7 | 2.75 | –
3 | C=C(C)c1cn(-c2c(F)ccc(OC)c2Cl)c(=O)c2cc(F)c(-n3nc(CO)n(CC)c3=O)cc12 [Example 51, 2-(2-Chloro-6-fluoro-3-methoxyphenyl)-6-(4-ethyl-3-(hydroxymethyl)-5-oxo-4,5-dihydro-1H-1,2,4-triazol-1-yl)-7-fluoro-4-(prop-1-en-2-yl)isoquinolin-1(2H)-one] | ≤ 0.2 | 0.267 | 0.1
4 | C=C(C)c1cn(-c2c(F)cccc2Cl)c(=O)c2cc(F)c(-n3nc(CO)n(CC)c3=O)cc12 [Example 52, 2-(2-Chloro-6-fluorophenyl)-6-(4-ethyl-3-(hydroxymethyl)-5-oxo-4,5-dihydro-1H-1,2,4-triazol-1-yl)-7-fluoro-4-(prop-1-en-2-yl)isoquinolin-1(2H)-one] | ≤ 0.2 | 0.265 | 0.1
5 | CCn1c(CO)nn(-c2cc3c(C(C)C)nn(-c4ccccc4C)c(=O)c3cc2F)c1=O [Example 53, 6-(4-Ethyl-3-(hydroxymethyl)-5-oxo-4,5-dihydro-1H-1,2,4-triazol-1-yl)-7-fluoro-4-isopropyl-2-(o-tolyl)phthalazin-1(2H)-one] | 0.7 | 0.778 | –
6 | CCn1c(CO)nn(-c2cc3c(C(C)C)nn(-c4c(F)cccc4Cl)c(=O)c3cc2F)c1=O [Example 54, 2-(2-Chloro-6-fluorophenyl)-6-(4-ethyl-3-(hydroxymethyl)-5-oxo-4,5-dihydro-1H-1,2,4-triazol-1-yl)-7-fluoro-4-isopropylphthalazin-1(2H)-one] | 0.4 | 0.433 | –
7 | CCn1c(CO)nn(-c2cc3c(C4(C)CC4)cn(-c4c(F)cccc4Cl)c(=O)c3cc2F)c1=O [Example 58, 2-(2-Chloro-6-fluorophenyl)-6-(4-ethyl-3-(hydroxymethyl)-5-oxo-4,5-dihydro-1H-1,2,4-triazol-1-yl)-7-fluoro-4-(1-methylcyclopropyl)isoquinolin-1(2H)-one] | 4 | 8.81 | –
8 | C=C(C)c1cn(-c2c(C)ccnc2OC)c(=O)c2cc(F)c(-n3nc(CO)n(CC)c3=O)cc12 [Example 59, 6-(4-Ethyl-3-(hydroxymethyl)-5-oxo-4,5-dihydro-1H-1,2,4-triazol-1-yl)-7-fluoro-2-(2-methoxy-4-methylpyridin-3-yl)-4-(prop-1-en-2-yl)isoquinolin-1(2H)-one] | 5 | 2.23 | –
9 | C=C(C)c1cn(-c2c(C)n[nH]c2Cl)c(=O)c2cc(F)c(-n3nc(CO)n(CC)c3=O)cc12 [Example 60, 2-(5-Chloro-3-methyl-1H-pyrazol-4-yl)-6-(4-ethyl-3-(hydroxymethyl)-5-oxo-4,5-dihydro-1H-1,2,4-triazol-1-yl)-7-fluoro-4-(prop-1-en-2-yl)isoquinolin-1(2H)-one] | 4 | 0.286 | –
10 | CCn1c(CO)nn(-c2cc3c(C(C)C)cn(-c4c(C)cnc(OC)c4Cl)c(=O)c3cc2F)c1=O [Example 61, 2-(3-Chloro-2-methoxy-5-methylpyridin-4-yl)-6-(4-ethyl-3-(hydroxymethyl)-5-oxo-4,5-dihydro-1H-1,2,4-triazol-1-yl)-7-fluoro-4-isopropylisoquinolin-1(2H)-one] | 2 | 0.617 | –
